Data taken from patent publication US8871728B2, “Non-peptide macrocyclic histone deacetylese (HDAC) inhibitors and methods of making and using thereof” (Georgia Tech Research Corporation, priority 2007, dated 2014).
Read-outs that look alike come from different tables or passages of the source.

Key:
Experiment in all cases: SAMDI mass spectrometry HDAC inhibition assay
Assay type in all cases: biochemical
HDAC1 = HDAC1 (Homo sapiens (Human), UniProt Q13547); settings: for HDAC1 inhibition in words / HDAC1 inhibition, symbol: SAMDI; for inhibition at 10 µM: given if the IC50 was above 10 μM
Procedure: (§1) There is precedence that fluorescently labeled substrates can perturb enzyme activity and the effect of inhibitors. […] Additionally, 3-hydroxypyridine-2-ones are highly colored solids and might lead to false positive signals. Mindful of these facts, a label-free SAMDI (self-assembled monolayers for MALDI) mass spectrometry assay was also used to assess HDAC inhibition.
(§2) The SAMDI technique, wherein self-assembled monolayers (SAM) of alkanethiolates on gold are analyzed by matrix assisted laser desorption/ionization (MALDI) mass spectrometry, has been widely used to characterize many biochemical activities, including the deacetylase enzyme family.

HDAC8 = HDAC8 (Homo sapiens (Human), UniProt Q9BY41); settings: for inhibition at 10 µM: given if the IC50 was above 10 μM
Procedure: as §1, §2

HDAC6 = HDAC6 (Homo sapiens (Human), UniProt Q9UBN7); settings: for HDAC6 inhibition in words / HDAC6 inhibition, symbol / IC50: SAMDI; for IC50: read-out: HDAC6 IC50; for inhibition at 10 µM: read-out: HDAC6 % inhibition
Procedure: as §1
as §2, with “family. The SAMDI assay was used to measure the inhibition constant (K1) of fragments against HDAC1, HDAC6 and HDAC8 using a previously identified preferred HDAC substrate.” for “family.”

[1] = SAMDI, read-out: HDAC8 activity (IC50)

Chain of HDAC8 (Q9BY41 whole entry): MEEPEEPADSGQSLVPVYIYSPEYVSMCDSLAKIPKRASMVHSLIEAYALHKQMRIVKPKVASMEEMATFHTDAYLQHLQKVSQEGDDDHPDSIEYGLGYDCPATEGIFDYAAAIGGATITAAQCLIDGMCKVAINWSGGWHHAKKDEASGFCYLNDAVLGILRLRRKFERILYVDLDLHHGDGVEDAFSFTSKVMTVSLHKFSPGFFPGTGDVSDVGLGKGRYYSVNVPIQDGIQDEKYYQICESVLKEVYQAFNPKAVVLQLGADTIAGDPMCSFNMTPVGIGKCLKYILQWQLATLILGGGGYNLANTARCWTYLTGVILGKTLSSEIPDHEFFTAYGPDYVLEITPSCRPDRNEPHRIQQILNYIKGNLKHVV
Chain of HDAC6 (Q9UBN7 whole entry): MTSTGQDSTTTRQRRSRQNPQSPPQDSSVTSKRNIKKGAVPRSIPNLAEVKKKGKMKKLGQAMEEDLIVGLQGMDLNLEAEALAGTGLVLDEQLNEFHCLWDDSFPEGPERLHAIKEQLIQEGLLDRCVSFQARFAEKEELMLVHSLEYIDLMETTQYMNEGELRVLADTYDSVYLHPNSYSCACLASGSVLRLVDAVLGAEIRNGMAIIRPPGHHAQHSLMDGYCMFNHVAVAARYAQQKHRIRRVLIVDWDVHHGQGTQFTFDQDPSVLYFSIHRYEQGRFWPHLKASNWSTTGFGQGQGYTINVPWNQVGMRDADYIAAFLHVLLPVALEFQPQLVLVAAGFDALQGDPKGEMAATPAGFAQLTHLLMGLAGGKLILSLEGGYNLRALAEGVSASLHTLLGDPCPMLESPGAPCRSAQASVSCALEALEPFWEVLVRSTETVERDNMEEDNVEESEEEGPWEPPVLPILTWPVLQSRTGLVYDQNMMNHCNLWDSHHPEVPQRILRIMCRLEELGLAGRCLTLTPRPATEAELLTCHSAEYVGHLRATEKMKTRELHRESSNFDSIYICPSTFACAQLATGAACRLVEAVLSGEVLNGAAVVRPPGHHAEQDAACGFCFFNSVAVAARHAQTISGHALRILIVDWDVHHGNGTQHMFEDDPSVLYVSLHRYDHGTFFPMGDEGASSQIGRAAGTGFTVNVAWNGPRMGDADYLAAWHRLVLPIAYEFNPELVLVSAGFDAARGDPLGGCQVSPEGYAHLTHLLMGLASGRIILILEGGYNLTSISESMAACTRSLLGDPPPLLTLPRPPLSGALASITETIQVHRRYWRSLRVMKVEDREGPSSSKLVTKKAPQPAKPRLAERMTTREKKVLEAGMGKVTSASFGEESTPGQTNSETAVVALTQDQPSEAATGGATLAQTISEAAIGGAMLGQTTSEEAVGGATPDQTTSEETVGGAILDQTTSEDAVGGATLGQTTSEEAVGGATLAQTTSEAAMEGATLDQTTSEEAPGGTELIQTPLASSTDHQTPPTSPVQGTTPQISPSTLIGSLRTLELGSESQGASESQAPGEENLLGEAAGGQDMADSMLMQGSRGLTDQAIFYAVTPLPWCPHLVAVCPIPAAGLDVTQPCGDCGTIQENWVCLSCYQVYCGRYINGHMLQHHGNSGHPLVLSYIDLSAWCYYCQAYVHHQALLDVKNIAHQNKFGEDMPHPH
Chain of HDAC1 (Q13547 whole entry): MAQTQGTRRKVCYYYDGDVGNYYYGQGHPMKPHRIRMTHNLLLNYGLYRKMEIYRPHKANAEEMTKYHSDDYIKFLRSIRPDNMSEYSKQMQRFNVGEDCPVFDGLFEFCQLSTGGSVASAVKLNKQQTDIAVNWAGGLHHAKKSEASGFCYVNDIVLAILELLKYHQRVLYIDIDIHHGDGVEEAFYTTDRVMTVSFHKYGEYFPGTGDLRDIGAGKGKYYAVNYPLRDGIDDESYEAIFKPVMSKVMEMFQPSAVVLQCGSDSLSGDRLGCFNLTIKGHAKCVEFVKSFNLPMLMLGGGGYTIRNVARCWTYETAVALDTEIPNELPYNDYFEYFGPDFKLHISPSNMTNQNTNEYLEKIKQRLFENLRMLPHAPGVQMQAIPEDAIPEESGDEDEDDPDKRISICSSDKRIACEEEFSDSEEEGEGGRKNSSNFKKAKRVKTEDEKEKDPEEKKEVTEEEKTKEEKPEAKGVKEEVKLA

SMILES: O=c1[nH]cccc1O [3-hydroxypyridine-2-one, reference compound]
- HDAC1 inhibition in words (HDAC1): inactive
- HDAC1 inhibition, symbol (HDAC1): NI (No significant Inhibition (below 20% Inhibition))
- HDAC8 inhibition in words (HDAC8; SAMDI): inactive
- HDAC8 inhibition, symbol (HDAC8; SAMDI): NI (No significant Inhibition (below 20% Inhibition))
- HDAC6 inhibition in words (HDAC6): inactive
- HDAC6 inhibition, symbol (HDAC6): NI (No significant Inhibition (below 20% Inhibition))

SMILES: Oc1ccc[nH]c1=S [3-hydroxypyridine-2-thione, reference compound]
- HDAC1 inhibition in words (HDAC1): inactive
- HDAC1 inhibition, symbol (HDAC1): NI (No significant Inhibition (below 20% Inhibition))
- HDAC8 inhibition in words (HDAC8; SAMDI): low micromolar IC50 values
- IC50 (HDAC8; Table 14, read-out: HDAC 8 (nm)): 3680 ± 1200 nM
- HDAC6 inhibition in words (HDAC6): low micromolar IC50 values
- IC50 (HDAC6): 681 ± 110 nM

SMILES: Cn1cccc(O)c1=O [Compound 142a, 1-Methyl-3-hydroxypyridine-2-one]
- HDAC1 inhibition, symbol (HDAC1): NI (No significant Inhibition (below 20% Inhibition))
- inhibition at 10 µM (HDAC8): 8%
- HDAC6 inhibition, symbol (HDAC6): NI (No significant Inhibition (below 20% Inhibition))

SMILES: O=c1c(O)cccn1Cc1ccccc1 [Compound 142b, 1-Benzyl-3-hydroxypyridine-2-one]
- HDAC1 inhibition, symbol (HDAC1): NI (No significant Inhibition (below 20% Inhibition))
- inhibition at 10 µM (HDAC8): 8%
- HDAC6 inhibition, symbol (HDAC6): NI (No significant Inhibition (below 20% Inhibition))

SMILES: O=c1c(O)cccn1Cc1ccc(-c2ccccc2)cc1 [Compound 142c, 1-(1,1′-Biphenylmethyl)-3-hydroxypyridine-2-one]
- HDAC1 inhibition, symbol (HDAC1): NI (No significant Inhibition (below 20% Inhibition))
- inhibition at 10 µM (HDAC8): 8%
- HDAC6 inhibition, symbol (HDAC6): NI (No significant Inhibition (below 20% Inhibition))

SMILES: Oc1cccn(Cc2ccccc2)c1=S [Compound 144b, 1-Benzyl-3-hydroxypyridine-2-thione]
- HDAC1 inhibition, symbol (HDAC1): NI (No significant Inhibition (below 20% Inhibition))
- HDAC8 activity, fold superior compared to 144e (HDAC8; SAMDI): 2 fold
- IC50 (HDAC8; SAMDI, read-out: HDAC8 IC50): 1270 ± 200 nM
- IC50 (HDAC6): 457 ± 27 nM

SMILES: Oc1cccn(Cc2ccc(-c3ccccc3)cc2)c1=S [Compound 144c, 1-(1,1′-Biphenylmethyl)-3-hydroxypyridine-2-thione]
- HDAC1 inhibition, symbol (HDAC1): NI (No significant Inhibition (below 20% Inhibition))
- IC50 (HDAC8; SAMDI, read-out: HDAC8 IC50): 4280 ± 1550 nM
- IC50 (HDAC6): 847 ± 188 nM

SMILES: N#Cc1ccc(-c2ccc(Cn3cccc(O)c3=O)cc2)cc1 [Compound 148a]
- HDAC1 inhibition, symbol (HDAC1): NI (No significant Inhibition (below 20% Inhibition))
- inhibition at 10 µM (HDAC8): 16%
- HDAC6 inhibition, symbol (HDAC6): NI (No significant Inhibition (below 20% Inhibition))

SMILES: N#Cc1cccc(-c2ccc(Cn3cccc(O)c3=O)cc2)c1 [Compound 148b, 1-(3-Cyano-(1,1′-biphenylmethyl))-3-hydroxyoxypyridine-2-one]
- HDAC1 inhibition, symbol (HDAC1): NI (No significant Inhibition (below 20% Inhibition))
- inhibition at 10 µM (HDAC8): 9%
- HDAC6 inhibition, symbol (HDAC6): NI (No significant Inhibition (below 20% Inhibition))

SMILES: N#Cc1ccccc1-c1ccc(Cn2cccc(O)c2=O)cc1 [Compound 148c, 1-(2-Cyano-(1,1′-biphenylmethyl))-3-hydroxyoxypyridine-2-one]
- HDAC1 inhibition, symbol (HDAC1): NI (No significant Inhibition (below 20% Inhibition))
- inhibition at 10 µM (HDAC8): 9%
- inhibition at 10 µM (HDAC6): 5%

SMILES: Cc1ccc(-c2ccc(Cn3cccc(O)c3=O)cc2)cc1 [Compound 148d, 1-(4-Methyl-(1,1′-biphenylmethyl))-3-hydroxyoxypyridine-2-one]
- HDAC1 inhibition, symbol (HDAC1): NI (No significant Inhibition (below 20% Inhibition))
- inhibition at 10 µM (HDAC8): 25%
- HDAC6 inhibition, symbol (HDAC6): NI (No significant Inhibition (below 20% Inhibition))

SMILES: Cc1cccc(-c2ccc(Cn3cccc(O)c3=O)cc2)c1 [Compound 148e, 1-(3-Methyl-(1,1′-biphenylmethyl))-3-hydroxyoxypyridine-2-one]
- HDAC1 inhibition, symbol (HDAC1): NI (No significant Inhibition (below 20% Inhibition))
- HDAC8 inhibition, symbol (HDAC8; SAMDI): NI (No significant Inhibition (below 20% Inhibition))
- HDAC6 inhibition, symbol (HDAC6): NI (No significant Inhibition (below 20% Inhibition))

SMILES: Cc1ccccc1-c1ccc(Cn2cccc(O)c2=O)cc1 [Compound 148f, 1-(2-Methyl-(1,1′-biphenylmethyl))-3-hydroxyoxypyridine-2-one]
- HDAC1 inhibition, symbol (HDAC1): NI (No significant Inhibition (below 20% Inhibition))
- inhibition at 10 µM (HDAC8): 9%
- HDAC6 inhibition, symbol (HDAC6): NI (No significant Inhibition (below 20% Inhibition))

SMILES: CN(C)c1ccc(-c2ccc(Cn3cccc(O)c3=O)cc2)cc1 [Compound 148g, 1-(4-Dimethylamino-(1,1′-biphenylmethyl))-3-hydroxyoxypyridine-2-one]
- HDAC1 inhibition, symbol (HDAC1): NI (No significant Inhibition (below 20% Inhibition))
- inhibition at 10 µM (HDAC8): 35%
- inhibition at 10 µM (HDAC6): 11%

SMILES: CN(C)c1ccc(-c2ccc(Cn3cccc(O)c3=O)cc2)cn1 [Compound 148h]
- HDAC1 inhibition, symbol (HDAC1): NI (No significant Inhibition (below 20% Inhibition))
- inhibition at 10 µM (HDAC8): 37%
- HDAC6 inhibition, symbol (HDAC6): NI (No significant Inhibition (below 20% Inhibition))

SMILES: O=c1c(O)cccn1Cc1ccc(-c2ccncc2)cc1 [Compound 148i, 1-(4-(Pyridine-4-yl)benzyl)-3-hydroxypyridine-2-one]
- HDAC1 inhibition, symbol (HDAC1): NI (No significant Inhibition (below 20% Inhibition))
- inhibition at 10 µM (HDAC8): 16%
- HDAC6 inhibition, symbol (HDAC6): NI (No significant Inhibition (below 20% Inhibition))

SMILES: N#Cc1ccc(-c2ccc(Cn3cccc(O)c3=S)cc2)cc1 [Compound 149a, 1-(4-Cyano-(1,1′-biphenylmethyl))-3-hydroxyoxypyridine-2-thione]
- HDAC1 inhibition, symbol (HDAC1): NI (No significant Inhibition (below 20% Inhibition))
- IC50 (HDAC8; SAMDI, read-out: HDAC8 IC50): 2080 ± 459 nM
- IC50 (HDAC8; [1]): ~2000 nM
- IC50 (HDAC6): 957 ± 159 nM

SMILES: N#Cc1cccc(-c2ccc(Cn3cccc(O)c3=S)cc2)c1 [Compound 149b, 1-(3-Cyano-(1,1′-biphenylmethyl))-3-hydroxyoxypyridine-2-thione]
- HDAC1 inhibition, symbol (HDAC1): NI (No significant Inhibition (below 20% Inhibition))
- IC50 (HDAC8; SAMDI, read-out: HDAC8 IC50): 1700 ± 717 nM
- IC50 (HDAC8; [1]): ~2000 nM
- inhibition at 10 µM (HDAC6): 44%

SMILES: Cc1ccc(-c2ccc(Cn3cccc(O)c3=S)cc2)cc1 [Compound 149d, 1-(4-Methyl-(1,1′-biphenylmethyl))-3-hydroxyoxypyridine-2-thione]
- HDAC1 inhibition, symbol (HDAC1): NI (No significant Inhibition (below 20% Inhibition))
- IC50 (HDAC8; SAMDI, read-out: HDAC8 IC50): 800 ± 304 nM
- IC50 (HDAC6): 454 ± 42 nM

SMILES: Cc1cccc(-c2ccc(Cn3cccc(O)c3=S)cc2)c1 [Compound 149e, 1-(3-Methyl-(1,1′-biphenylmethyl))-3-hydroxyoxypyridine-2-thione]
- HDAC1 inhibition, symbol (HDAC1): NI (No significant Inhibition (below 20% Inhibition))
- IC50 (HDAC8; SAMDI, read-out: HDAC8 IC50): 2500 ± 1180 nM
- IC50 (HDAC6): 812 ± 286 nM

SMILES: CN(C)c1ccc(-c2ccc(Cn3cccc(O)c3=S)cc2)cn1 [Compound 149h]
- HDAC1 inhibition, symbol (HDAC1): NI (No significant Inhibition (below 20% Inhibition))
- inhibition at 10 µM (HDAC8): 34%
- IC50 (HDAC6): 2390 ± 458 nM

SMILES: Oc1cccn(Cc2ccc(-c3ccncc3)cc2)c1=S [Compound 149i, 1-(4-(Pyridin-4-yl)benzyl)-3-hydroxypyridine-2-thione]
- HDAC1 inhibition, symbol (HDAC1): NI (No significant Inhibition (below 20% Inhibition))
- IC50 (HDAC8; SAMDI, read-out: HDAC8 IC50): 2780 ± 323 nM
- IC50 (HDAC6): 2200 ± 355 nM

SMILES: O=c1c(O)cccn1Cc1cn(-c2ccccc2)nn1 [Compound 152a, 1-Phenyltriazolylmethyl-3-hydroxypyridine-2-one]
- HDAC1 inhibition, symbol (HDAC1): NI (No significant Inhibition (below 20% Inhibition))
- inhibition at 10 µM (HDAC8): 17%
- HDAC6 inhibition, symbol (HDAC6): NI (No significant Inhibition (below 20% Inhibition))

SMILES: CN(C)c1ccc(-n2cc(Cn3cccc(O)c3=O)nn2)cc1 [Compound 152b, 1-(4-Dimethylamino)phenylltriazolylmethyl-3-hydroxypyridine-2-one]
- HDAC1 inhibition, symbol (HDAC1): NI (No significant Inhibition (below 20% Inhibition))
- inhibition at 10 µM (HDAC8): 8%
- HDAC6 inhibition, symbol (HDAC6): NI (No significant Inhibition (below 20% Inhibition))

SMILES: CN(C)c1ccc(-n2cc(Cn3cccc(O)c3=S)nn2)cc1 [Compound 154b, 1-(4-Dimethylamino)phenylltriazolylmethyl-3-hydroxypyridine-2-thione]
- HDAC1 inhibition, symbol (HDAC1): NI (No significant Inhibition (below 20% Inhibition))
- IC50 (HDAC8; SAMDI, read-out: HDAC8 IC50): 1870 ± 723 nM
- IC50 (HDAC6): 1020 ± 99 nM

SMILES: Oc1cccn(CCCn2cc(-c3ccccc3)nn2)c1=S [Compound 162b, 1-Phenyltriazolylpropyl-3-hydroxypyridine-2-thione]
- inhibition at 10 µM (HDAC1): 27%
- inhibition at 10 µM (HDAC8): 63%

SMILES: Oc1cccn(CCCCCCn2cc(-c3ccccc3)nn2)c1=S [Compound 162e, 1-Phenyltriazolylhexyl-3-hydroxypyridine-2-thione]
- inhibition at 10 µM (HDAC1): 23%
- inhibition at 10 µM (HDAC6): 22%

SMILES: Cc1ccccc1-c1cn(CCCCCn2cccc(O)c2=O)nn1 [Compound 166c, 1-(2-Tolyl)triazolylpentyl-3-hydroxypyridine-2-one]
- inhibition at 10 µM (HDAC8): 4%
- HDAC6 inhibition, symbol (HDAC6): NI (No significant Inhibition (below 20% Inhibition))

SMILES: Cc1ccc(-c2cn(CCCCCn3cccc(O)c3=S)nn2)cc1 [Compound 167a, 1-(4-Tolyl)triazolylpentyl-3-hydroxypyridine-2-thione]
- inhibition at 10 µM (HDAC1): 31%

SMILES: Cc1cccc(-c2cn(CCCCCn3cccc(O)c3=S)nn2)c1 [Compound 167b, 1-(3-Tolyl)triazolylpentyl-3-hydroxypyridine-2-thione]
- inhibition at 10 µM (HDAC1): 19%
